In experiment [1] the target is GST-MCL-1 (Homo sapiens (Human), UniProt Q07820). The experiment is described as follows: TR-FRET MCL-1 binding assay (competition with probe F-Bak). A digest of the protocol:
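Compounds as 11 three-fold dilutions from 25 μM with GST-MCL-1, F-Bak probe and Tb-anti-His antibody, 2 h at room temperature. TR-FRET at 340 nm excitation, 520/525 nm (F-Bak) and 495/510 nm (Tb) emission. Run without human serum and with 10% HS.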
(In TR-FRET formats the signal depends on donor and acceptor labels being close together.)

Experiment [2] relates to AMO-1 human multiple myeloma tumor cell line. The experiment is described as follows: AMO-1 cell viability assay (CellTiter-Glo). In kind it is cell-based. As to conditions: AMO1, read-out: AMO-1 Viability IC50 (μM), 10% FBS, 24 hours of compound treatment.
Experiment [3] concerns NCI-H929 human multiple myeloma tumor cell line. The experiment is described as follows: NCI-H929 cell viability assay (CellTiter-Glo). The settings on record: NCI-H929, read-out: H929 Viability IC50 (μM), 10% FBS, 24 hours of compound treatment. Format: cell-based.
Procedure: In one exemplary set of conditions, NCI-H929 or AMO-1 (ATCC. Manassas, Va.) were plated 4.000 cells per well in 384-well tissue culture plates (Corning. Corning, N.Y.) in a total volume of 25 μL RPMI tissue culture medium supplemented with 10% fetal bovine serum (Sigma-Aldrich, St. Louis, Mo.) and treated with a 3-fold serial dilution of the compounds of interest with a Labcyte Echo from a final concentration of 10 μM to 0.0005 μM. Each concentration was tested in duplicate at least 3 independent times. A luminescent signal proportional to the number of viable cells following 24 hours of compound treatment was determined using the CellTiter-Glo® Luminescent Cell Viability Assay according to the manufacturer's recommendations (Promega Corp., Madison, Wis.). The plates were read in a Perkin Elmer Envision using a Luminescence protocol. To generate dose response curves the data is normalized to percent viability by setting the averages of the staurosporine (10 uM) and DMSO only control wells to 0% and (00)% viability respectively. The IC50 values for the compounds are generated by fitting the normalized data with Accelrys Assay Explorer 3.3 to a sigmoidal curve model using linear regression.
[4] abbreviates: read-out: MCL-1 Binding Ki (nM, 10% HS), in the presence of 10% HS.
Where [5] appears, read: without HS, read-out: MCL-1 Binding Ki.

Here are results for 8 compounds from US10676485B2, “Macrocyclic MCL-1 inhibitors and methods of use” (AbbVie Inc., priority 2017, dated 2020).

By Ki is commonly meant the equilibrium dissociation constant of an inhibitor or competing ligand from its target. A word on the IC50: it is the concentration at which inhibition is half-maximal.

Where two headings read alike, the source gives them in different places.

Sequence of GST-MCL-1 (Q07820 whole entry): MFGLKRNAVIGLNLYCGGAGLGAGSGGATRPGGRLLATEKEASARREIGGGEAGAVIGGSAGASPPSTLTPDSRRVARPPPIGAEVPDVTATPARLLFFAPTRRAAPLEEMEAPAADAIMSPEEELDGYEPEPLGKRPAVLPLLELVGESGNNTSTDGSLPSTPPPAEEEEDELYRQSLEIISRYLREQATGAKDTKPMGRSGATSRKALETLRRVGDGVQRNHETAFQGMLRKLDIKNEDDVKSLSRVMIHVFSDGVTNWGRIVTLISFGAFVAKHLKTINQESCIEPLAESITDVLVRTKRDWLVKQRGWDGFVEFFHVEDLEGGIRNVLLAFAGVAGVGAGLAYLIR

For the compound `Cc1c(Cl)c2c(Cl)c(C)c1-c1c(C3=CCCC3)sc3ncnc(c13)O[C@@H](C(=O)O)Cc1cc(ccc1OCc1ccnc(C3=CC[C@@](F)(COC[C@@H]4COCCO4)CC3)n1)OC[C@@H](CN1CCN(C)CC1)O2` [Example 38, (7R,16R)-19,23-dichloro-1-(cyclopent-1-en-1-yl)-10-({2-[(4R)-4-({[(2S)-1,4-dioxan-2-yl]methoxy}methyl)-4-fluorocyclohex-1-en-1-yl]pyrimidin-4-yl}methoxy)-20,22-dimethyl-16-[(4-methylpiperazin-1-yl)methyl]-7,8,15,16-tetrahydro-18,21-etheno-13,9-(metheno)-6,14,17-trioxa-2-thia-3,5-diazacyclononadeca[1,2,3-cd]indene-7-carboxylic acid], the inhibition constant Ki came to 0.63 nM in experiment [1] (setting [4]) and 0.036 nM in experiment [1] (setting [5]). In addition, the 50% inhibitory concentration (IC50) was found to be 0.000267 µM in experiment [2] and 0.000748 µM in experiment [3].
The corresponding values for `Cc1c(Cl)c2c(Cl)c(C)c1-c1c(-c3ccc(F)cc3)sc3ncnc(c13)O[C@@H](C(=O)O)Cc1cc(ccc1OCc1ccnc([C@H]3CC[C@](F)(COC[C@H]4COCCO4)CC3)n1)OC[C@@H](CN1CCN(C)CC1)O2` [Example 39, (7R,16R)-19,23-dichloro-10-({2-[(1S,4s)-4-({[(2R)-1,4-dioxan-2-yl]methoxy}methyl)-4-fluorocyclohexyl]pyrimidin-4-yl}methoxy)-1-(4-fluorophenyl)-20,22-dimethyl-16-[(4-methylpiperazin-1-yl)methyl]-7,8,15,16-tetrahydro-18,21-etheno-13,9-(metheno)-6,14,17-trioxa-2-thia-3,5-diazacyclononadeca[1,2,3-cd]indene-7-carboxylic acid] are 0.06 nM, 0.004 nM, 0.000235 µM and 0.000239 µM.
For `Cc1c(Cl)c2c(Cl)c(C)c1-c1c(-c3ccc(F)cc3)sc3ncnc(c13)O[C@@H](C(=O)O)Cc1cc(ccc1OCc1ccnc(C3=CC[C@](F)(COC[C@H]4COCCO4)CC3)n1)OC[C@@H](CN1CCN(C)CC1)O2` [Example 40, (7R,16R)-19,23-dichloro-10-({2-[(4S)-4-({[(2R)-1,4-dioxan-2-yl]methoxy}methyl)-4-fluorocyclohex-1-en-1-yl]pyrimidin-4-yl}methoxy)-1-(4-fluorophenyl)-20,22-dimethyl-16-[(4-methylpiperazin-1-yl)methyl]-7,8,15,16-tetrahydro-18,21-etheno-13,9-(metheno)-6,14,17-trioxa-2-thia-3,5-diazacyclononadeca[1,2,3-cd]indene-7-carboxylic acid] the same measures were 0.63 nM, 0.014 nM, 0.000352 µM and 0.000271 µM.
On to `Cc1c(Cl)c2c(Cl)c(C)c1-c1c(-c3ccc(F)cc3)sc3ncnc(c13)O[C@@H](C(=O)O)Cc1cc(ccc1OCc1ccnc(-c3ccc(NC[C@@H]4COCCO4)nc3)n1)OC[C@@H](CN1CCN(C)CC1)O2` [Example 41, (7R,16R)-19,23-dichloro-10-({2-[6-({[(2R)-1,4-dioxan-2-yl]methyl}amino)pyridin-3-yl]pyrimidin-4-yl}methoxy)-1-(4-fluorophenyl)-20,22-dimethyl-16-[(4-methylpiperazin-1-yl)methyl]-7,8,15,16-tetrahydro-18,21-etheno-13,9-(metheno)-6,14,17-trioxa-2-thia-3,5-diazacyclononadeca[1,2,3-cd]indene-7-carboxylic acid], for which the Ki in experiment [1] (setting [4]) stood at 0.14 nM; in experiment [1] (setting [5]), 0.009 nM. The IC50 is 0.000589 µM in experiment [2] and 0.000595 µM in experiment [3].
The corresponding values for `Cc1c(Cl)c2c(Cl)c(C)c1-c1c(-c3ccc(F)cc3)sc3ncnc(c13)O[C@@H](C(=O)O)Cc1cc(ccc1OCc1ccnc(C3=CC[C@@](F)(COC[C@@H]4COCCO4)CC3)n1)OC[C@@H](CN1CCN(C)CC1)O2` [Example 42, (7R,16R)-19,23-dichloro-10-({2-[(4R)-4-({[(2S)-1,4-dioxan-2-yl]methoxy}methyl)-4-fluorocyclohex-1-en-1-yl]pyrimidin-4-yl}methoxy)-1-(4-fluorophenyl)-20,22-dimethyl-16-[(4-methylpiperazin-1-yl)methyl]-7,8,15,16-tetrahydro-18,21-etheno-13,9-(metheno)-6,14,17-trioxa-2-thia-3,5-diazacyclononadeca[1,2,3-cd]indene-7-carboxylic acid] are 0.24 nM, 0.018 nM, 0.000404 µM and 0.000356 µM.
With `Cc1c(Cl)c2c(Cl)c(C)c1-c1c(-c3ccc(F)cc3)sc3ncnc(c13)O[C@@H](C(=O)O)Cc1cc(ccc1OCc1ccnc(C3=CC[C@@](F)(COC[C@H]4COCCO4)CC3)n1)OC[C@@H](CN1CCN(C)CC1)O2` [Example 43, (7R,16R)-19,23-dichloro-10-({2-[(4R)-4-({[(2R)-1,4-dioxan-2-yl]methoxy}methyl)-4-fluorocyclohex-1-en-1-yl]pyrimidin-4-yl}methoxy)-1-(4-fluorophenyl)-20,22-dimethyl-16-[(4-methylpiperazin-1-yl)methyl]-7,8,15,16-tetrahydro-18,21-etheno-13,9-(metheno)-6,14,17-trioxa-2-thia-3,5-diazacyclononadeca[1,2,3-cd]indene-7-carboxylic acid], the Ki in experiment [1] (setting [4]) came to 0.18 nM; in experiment [1] (setting [5]) it was 0.02 nM. Further, the IC50 in experiment [2] stood at 0.000346 µM; in experiment [3] it was 0.000365 µM.
The corresponding values for `Cc1c(Cl)c2c(Cl)c(C)c1-c1c(-c3ccc(F)cc3)sc3ncnc(c13)O[C@@H](C(=O)O)Cc1cc(ccc1OCc1ccnc([C@H]3CC[C@H](OC[C@@H]4COCCO4)CC3)n1)OC[C@@H](CN1CCN(C)CC1)O2` [Example 44, (7R,16R)-19,23-dichloro-10-({2-[(1S,4r)-4-{[(2S)-1,4-dioxan-2-yl]methoxy}cyclohexyl]pyrimidin-4-yl}methoxy)-1-(4-fluorophenyl)-20,22-dimethyl-16-[(4-methylpiperazin-1-yl)methyl]-7,8,15,16-tetrahydro-18,21-etheno-13,9-(metheno)-6,14,17-trioxa-2-thia-3,5-diazacyclononadeca[1,2,3-cd]indene-7-carboxylic acid] are 0.16 nM, 0.02 nM, 0.000268 µM and 0.000286 µM.
For `Cc1c(Cl)c2c(Cl)c(C)c1-c1c(-c3ccc(F)cc3)sc3ncnc(c13)O[C@@H](C(=O)O)Cc1cc(ccc1OCc1ccnc(C3=CC[C@](F)(COC[C@@H]4COCCO4)CC3)n1)OC[C@@H](CN1CCN(C)CC1)O2` [Example 45, (7R,16R)-19,23-dichloro-10-({2-[(4S)-4-({[(2S)-1,4-dioxan-2-yl]methoxy}methyl)-4-fluorocyclohex-1-en-1-yl]pyrimidin-4-yl}methoxy)-1-(4-fluorophenyl)-20,22-dimethyl-16-[(4-methylpiperazin-1-yl)methyl]-7,8,15,16-tetrahydro-18,21-etheno-13,9-(metheno)-6,14,17-trioxa-2-thia-3,5-diazacyclononadeca[1,2,3-cd]indene-7-carboxylic acid] the same measures were 0.16 nM, 0.012 nM, 0.000249 µM and 0.000258 µM.
